Twelve molecules from PubChem BioAssay (NCI) can be followed below.

Test systems include SK-OV-3 ovarian; NCI-H226 lung; RXF 393 renal; K-562 leukemia; LOX IMVI melanoma; HOP-92 NSCLC; SF-295 CNS; SW-620 colon; HOP-62 NSCLC; U251 CNS.
Assay in all cases: DTP human tumour cell line panel, 48 h

Where “and” joins values, the source holds several entries; their conditions need not be identical. Identical values can stand only once.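 Briefly, cells in 96-well plates were exposed to five compound concentrations for 48 h, and endpoints were estimated by linear interpolation. GI50 is the concentration that inhibits growth by half. The concentration for full growth arrest is given as TGI.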

A word on the GI50: it is the concentration at which growth is held to half of that of the control. Usually TGI stands for the concentration at which net growth stops. A low value points to greater sensitivity of the cells. `O=P([O-])(O)OP(=O)([O-])O.[NH-][C@@H]1CCCC[C@H]1[NH-].[Pt+4]`: the GI50 in the experiment on SK-OV-3 ovarian was 98.4 µM and 37.4 µM; in the experiment on NCI-H226 lung it was 32.3 µM and 5.29 µM; in the experiment with RXF 393 renal, 41.7 µM and 13.6 µM; in the experiment on K-562 leukemia, 26.1 µM and 4.09 µM; in the experiment with LOX IMVI melanoma, 15.6 µM and 6.86 µM; in the experiment with HOP-92 NSCLC, > 100 µM and 12.2 µM. In addition, the GI50 was 26.2 µM and 14.5 µM in the experiment on SF-295 CNS; 4.85 µM and 0.659 µM in the experiment with SW-620 colon; > 95.5 µM and 13.2 µM in the experiment with HOP-62 NSCLC; 42.4 µM and 8.27 µM in the experiment with U251 CNS. The TGI was over 100 µM with SK-OV-3 ovarian; > 100 µM and 33.6 µM in the experiment with NCI-H226 lung; over 100 µM in the experiment on RXF 393 renal; over 100 µM in the experiment with K-562 leukemia; over 100 µM in the experiment with LOX IMVI melanoma; over 100 µM with HOP-92 NSCLC. The TGI in the experiment on SF-295 CNS, in the experiment with SW-620 colon, in the experiment with HOP-62 NSCLC and with U251 CNS was over 100 µM throughout.

Turning to `CCCN1CCN(c2ccc3nc(-c4ccc5nc(-c6cc(OC)ccc6OC)[nH]c5c4)[nH]c3c2)CC1`, the GI50 is 20.2 µM in the experiment on NCI-H226 lung; 1.65 µM with RXF 393 renal; 1.73 µM in the experiment on LOX IMVI melanoma; 11 µM in the experiment with HOP-92 NSCLC; 15.7 µM in the experiment on SF-295 CNS; 1.86 µM in the experiment with SW-620 colon. In addition, the GI50 in the experiment with U251 CNS is 1.69 µM. Besides, the TGI in the experiment with NCI-H226 lung stood at 46 µM; with RXF 393 renal, 3.17 µM; in the experiment with LOX IMVI melanoma, 3.26 µM; with HOP-92 NSCLC it was 27 µM; in the experiment on SF-295 CNS it was 30.1 µM; with SW-620 colon, 3.57 µM. For the same molecule, the concentration for total growth inhibition (TGI) in the experiment on U251 CNS was 3.1 µM.

Turning to `CCn1c(O)c(C=N)c(=O)n(CC)c1=O`, the TGI in the experiment with SK-OV-3 ovarian, in the experiment with NCI-H226 lung, in the experiment on RXF 393 renal, with K-562 leukemia, in the experiment with LOX IMVI melanoma and with HOP-92 NSCLC was over 100 µM throughout. Besides, the TGI in the experiment with SF-295 CNS, in the experiment with SW-620 colon and in the experiment on HOP-62 NSCLC was over 100 µM throughout.

With `COc1cc2cc(C(=O)Nc3cc(N)c4ccccc4c3CCCl)[nH]c2c(OC)c1OC`, the GI50 is 0.0603 µM in the experiment on SK-OV-3 ovarian; 0.115 µM with NCI-H226 lung; 0.00875 µM in the experiment on RXF 393 renal; 0.0466 µM in the experiment on K-562 leukemia; 0.0301 µM with LOX IMVI melanoma; 0.167 µM in the experiment on HOP-92 NSCLC. Further, the GI50 is 0.016 µM in the experiment on SF-295 CNS, 0.016 µM in the experiment with SW-620 colon and 0.0244 µM with HOP-62 NSCLC. For the same molecule, the TGI in the experiment with NCI-H226 lung is 0.308 µM; in the experiment on RXF 393 renal it was 0.0219 µM; with K-562 leukemia, 2.5 µM; in the experiment on LOX IMVI melanoma it was 1.53 µM; with HOP-92 NSCLC, 11.8 µM; in the experiment with SF-295 CNS it was over 16.5 µM. Also, the figures for the TGI in the experiment on SW-620 colon and with HOP-62 NSCLC were over 18.3 µM and 0.165 µM, respectively.

For `CCc1nc(N)nc(C(=O)NCCNC(=O)c2nc(N)nc(CC)c2C)c1C`, the TGI in the experiment on NCI-H226 lung, in the experiment on RXF 393 renal, in the experiment on K-562 leukemia, with LOX IMVI melanoma, in the experiment on HOP-92 NSCLC and in the experiment on SF-295 CNS was over 100 µM throughout. For the same molecule, the TGI in the experiment with SW-620 colon, in the experiment with HOP-62 NSCLC and in the experiment on U251 CNS was over 100 µM in each case.

With `CN1CCCCCC(=N\O)/C(=N/O)CCCCC1`, the TGI in the experiment with NCI-H226 lung, with RXF 393 renal, in the experiment with K-562 leukemia, in the experiment with LOX IMVI melanoma, with HOP-92 NSCLC and in the experiment with SF-295 CNS was over 100 µM in each case. For the same molecule, the TGI in the experiment with SW-620 colon, in the experiment with HOP-62 NSCLC and in the experiment with U251 CNS was over 100 µM throughout.

With `CCCC(C)C[C@@H](C)CC(C)/C=C(\C)c1oc(=O)c(C)c(O)c1C` (some centres not stated) (tested in a mixture with another compound), the TGI is 30.4 µM in the experiment with NCI-H226 lung; 26.6 µM in the experiment on RXF 393 renal; 31.6 µM in the experiment on LOX IMVI melanoma; 25.9 µM in the experiment on SF-295 CNS; 35.1 µM in the experiment with SW-620 colon; 36.5 µM with HOP-62 NSCLC. For the same molecule, the TGI with U251 CNS was determined as 27.6 µM.

For `Cc1cc(N2CCCC2)nc(NC2CCCC(Nc3ccnc4cc(Cl)ccc34)C2)n1` (configuration not stated), the GI50 in the experiment with SK-OV-3 ovarian was 1.86 µM; in the experiment with NCI-H226 lung, 1.91 µM; in the experiment on RXF 393 renal, 1.33 µM; with LOX IMVI melanoma, 0.681 µM; in the experiment on SF-295 CNS, 1.47 µM; in the experiment with SW-620 colon, 1.27 µM. For the same molecule, the values for the GI50 with HOP-62 NSCLC and in the experiment with U251 CNS were 1.32 µM and 1.48 µM, respectively. The TGI stood at 3.49 µM with SK-OV-3 ovarian; 3.92 µM in the experiment on NCI-H226 lung; 2.71 µM in the experiment with RXF 393 renal; 2.1 µM with LOX IMVI melanoma; 2.89 µM in the experiment with SF-295 CNS; 3.25 µM in the experiment on SW-620 colon. Besides, the TGI worked out at 2.95 µM in the experiment on HOP-62 NSCLC and 2.86 µM in the experiment with U251 CNS.

Take `Nc1ncn(C2C=C(CO)C(O)C2O)c(=O)n1` (configuration not stated): the TGI in the experiment with SK-OV-3 ovarian, with NCI-H226 lung, in the experiment on RXF 393 renal, in the experiment with K-562 leukemia, in the experiment on SW-620 colon and with HOP-62 NSCLC was over 100 µM throughout. The same molecule showed a TGI with U251 CNS of over 100 µM.

Turning to `COC1OC(C)C(O)CC1OS(=O)(=O)c1ccc(C)cc1` (configuration not stated), the TGI in the experiment on SK-OV-3 ovarian, in the experiment with NCI-H226 lung, with RXF 393 renal, in the experiment with K-562 leukemia, in the experiment on LOX IMVI melanoma and with HOP-92 NSCLC was over 100 µM each time. The TGI with SF-295 CNS, in the experiment on SW-620 colon and with U251 CNS was over 100 µM in each case.

As for `O=C1NC2CCC(C2)C1c1ccccc1` (configuration not stated), the TGI in the experiment on SK-OV-3 ovarian, with NCI-H226 lung, in the experiment with RXF 393 renal, with K-562 leukemia, with LOX IMVI melanoma and in the experiment with SF-295 CNS was over 100 µM in each case. Further, the TGI in the experiment on SW-620 colon and in the experiment on U251 CNS was over 100 µM each time.

For the molecule `Cc1cc(C)nc(NS(=O)(=O)c2ccc(Nc3c4ccc(Cl)cc4nc4c(C(=O)Nc5ccc(S(=O)(=O)N=C(N)N)cc5)cccc34)cc2)n1`, the TGI in the experiment with SK-OV-3 ovarian, in the experiment on RXF 393 renal, with K-562 leukemia, with LOX IMVI melanoma, in the experiment on SF-295 CNS and in the experiment on HOP-62 NSCLC was over 100 µM throughout. The molecule also had a TGI in the experiment on U251 CNS of over 100 µM.
